The source made the active and inactive calls.
Columns and labels:
[1] = inhibitors of firefly luciferase expression or activity, dose response, H4 neuroglioma cells, luminescence (AID 1990); format: functional, cell-based
[2] = molecular target: T1, RNA-binding protein pos-1 (Caenorhabditis elegans, UniProt G5EF15); experiment: inhibitors of POS-1/mex-3 RNA binding, dose response, biochemical, fluorescence polarization (AID 1964);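 note: purified POS-1 fused to maltose binding protein made in E. coli; potency of compounds blocking POS-1 binding to fluorescent RNA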
T1 sequence (G5EF15 whole entry): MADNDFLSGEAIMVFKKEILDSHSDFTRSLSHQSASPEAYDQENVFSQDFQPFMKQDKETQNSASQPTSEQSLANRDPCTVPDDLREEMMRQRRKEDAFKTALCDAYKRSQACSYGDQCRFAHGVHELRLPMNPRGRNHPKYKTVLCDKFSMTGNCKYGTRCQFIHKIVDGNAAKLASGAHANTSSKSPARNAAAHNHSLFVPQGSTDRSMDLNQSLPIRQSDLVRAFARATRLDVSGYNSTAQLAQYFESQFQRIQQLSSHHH

[3] = Luminescence Cell-Based Dose Response HTS to Identify Inhibitors of 5'UTR Stem-Loop Driven Prion Protein mRNA Translation in H4 Neuroglioblastoma Cells. [Related pubchem assays: 1827 (Project Summary), 1813 (Primary HTS)]; format: functional
[4] = molecular target: T2, Zinc finger protein mex-5 (Caenorhabditis elegans, UniProt Q9XUB2); experiment: MEX-5/TCR-2 RNA interaction inhibitors, dose response, biochemical, C. elegans, fluorescence polarization (AID 1960)
T2 sequence (Q9XUB2 whole entry): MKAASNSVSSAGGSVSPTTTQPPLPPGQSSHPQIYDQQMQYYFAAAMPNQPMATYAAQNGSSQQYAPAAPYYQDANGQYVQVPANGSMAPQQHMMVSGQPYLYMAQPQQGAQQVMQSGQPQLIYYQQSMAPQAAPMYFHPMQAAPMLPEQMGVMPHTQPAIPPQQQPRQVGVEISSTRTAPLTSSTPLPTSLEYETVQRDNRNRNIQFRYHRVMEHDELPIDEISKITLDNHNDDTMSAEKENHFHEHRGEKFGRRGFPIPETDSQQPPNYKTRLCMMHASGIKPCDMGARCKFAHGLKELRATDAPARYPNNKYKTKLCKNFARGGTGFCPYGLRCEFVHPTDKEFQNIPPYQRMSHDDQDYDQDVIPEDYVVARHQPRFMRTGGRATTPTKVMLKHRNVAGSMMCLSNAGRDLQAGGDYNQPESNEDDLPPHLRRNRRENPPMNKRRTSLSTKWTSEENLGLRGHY

[5] = inhibitors of SNCA 5'UTR-driven reporter translation, confirmation, H4 neuroglioma cells, luminescence (AID 1988); format: functional, cell-based
Large T antigen = Large T antigen (Simian virus 40, UniProt P03070); format: functional, Betapolyomavirus macacae;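 note: Confirmatory-stage PubChem screen for compounds that inhibit SV40 T antigen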
Chain of Large T antigen (P03070 whole entry): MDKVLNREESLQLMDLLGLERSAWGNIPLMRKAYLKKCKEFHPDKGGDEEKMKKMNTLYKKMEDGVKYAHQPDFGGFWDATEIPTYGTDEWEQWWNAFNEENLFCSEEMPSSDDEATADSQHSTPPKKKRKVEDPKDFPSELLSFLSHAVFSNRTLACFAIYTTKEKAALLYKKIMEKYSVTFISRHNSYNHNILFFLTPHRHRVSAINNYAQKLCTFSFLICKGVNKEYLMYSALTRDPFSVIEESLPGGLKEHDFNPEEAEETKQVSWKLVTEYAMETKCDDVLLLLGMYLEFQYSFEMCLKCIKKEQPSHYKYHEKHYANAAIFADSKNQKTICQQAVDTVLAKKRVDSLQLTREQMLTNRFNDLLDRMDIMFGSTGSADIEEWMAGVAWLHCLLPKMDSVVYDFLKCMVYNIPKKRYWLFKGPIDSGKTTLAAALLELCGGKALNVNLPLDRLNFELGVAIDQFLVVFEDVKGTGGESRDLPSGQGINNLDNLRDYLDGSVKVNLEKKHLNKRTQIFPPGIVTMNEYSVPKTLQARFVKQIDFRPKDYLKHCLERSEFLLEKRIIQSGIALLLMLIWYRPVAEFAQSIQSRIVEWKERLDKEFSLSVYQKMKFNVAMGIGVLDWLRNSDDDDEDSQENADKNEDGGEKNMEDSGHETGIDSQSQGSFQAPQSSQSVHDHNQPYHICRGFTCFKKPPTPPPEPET

CAAX prenyl protease 2 = molecular target: T3, CAAX prenyl protease 2 (Saccharomyces cerevisiae S288c, UniProt Q03530); format: biochemical
T3 sequence (Q03530 whole entry): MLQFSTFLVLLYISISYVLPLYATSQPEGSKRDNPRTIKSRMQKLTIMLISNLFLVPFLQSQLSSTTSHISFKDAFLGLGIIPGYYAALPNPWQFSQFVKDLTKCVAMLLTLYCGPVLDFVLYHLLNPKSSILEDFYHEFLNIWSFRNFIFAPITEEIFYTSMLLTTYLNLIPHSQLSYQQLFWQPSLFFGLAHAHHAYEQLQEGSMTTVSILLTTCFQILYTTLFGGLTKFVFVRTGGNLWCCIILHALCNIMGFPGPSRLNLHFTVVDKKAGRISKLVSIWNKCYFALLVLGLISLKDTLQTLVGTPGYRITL

[6] = molecular target: FAD-linked sulfhydryl oxidase ALR (Homo sapiens, UniProt P55789); experiment: inhibitors of human ALR sulfhydryl oxidase, dose response, biochemical, H2O2 detection, luminescence, cherry-pick (AID 493248)
Chain of FAD-linked sulfhydryl oxidase ALR (P55789 whole entry): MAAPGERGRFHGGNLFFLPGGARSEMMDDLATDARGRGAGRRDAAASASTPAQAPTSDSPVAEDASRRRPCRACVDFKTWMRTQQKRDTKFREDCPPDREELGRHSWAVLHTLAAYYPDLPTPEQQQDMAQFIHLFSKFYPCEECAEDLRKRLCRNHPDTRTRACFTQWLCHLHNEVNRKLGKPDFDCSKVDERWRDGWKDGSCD

Hexokinase HKDC1 = molecular target: T4, Hexokinase HKDC1 (Homo sapiens, UniProt Q2TB90); experiment: HKDC1 hexokinase inhibitors, dose response, biochemical, W721R variant (AID 504729); format: functional
T4 sequence (Q2TB90 whole entry): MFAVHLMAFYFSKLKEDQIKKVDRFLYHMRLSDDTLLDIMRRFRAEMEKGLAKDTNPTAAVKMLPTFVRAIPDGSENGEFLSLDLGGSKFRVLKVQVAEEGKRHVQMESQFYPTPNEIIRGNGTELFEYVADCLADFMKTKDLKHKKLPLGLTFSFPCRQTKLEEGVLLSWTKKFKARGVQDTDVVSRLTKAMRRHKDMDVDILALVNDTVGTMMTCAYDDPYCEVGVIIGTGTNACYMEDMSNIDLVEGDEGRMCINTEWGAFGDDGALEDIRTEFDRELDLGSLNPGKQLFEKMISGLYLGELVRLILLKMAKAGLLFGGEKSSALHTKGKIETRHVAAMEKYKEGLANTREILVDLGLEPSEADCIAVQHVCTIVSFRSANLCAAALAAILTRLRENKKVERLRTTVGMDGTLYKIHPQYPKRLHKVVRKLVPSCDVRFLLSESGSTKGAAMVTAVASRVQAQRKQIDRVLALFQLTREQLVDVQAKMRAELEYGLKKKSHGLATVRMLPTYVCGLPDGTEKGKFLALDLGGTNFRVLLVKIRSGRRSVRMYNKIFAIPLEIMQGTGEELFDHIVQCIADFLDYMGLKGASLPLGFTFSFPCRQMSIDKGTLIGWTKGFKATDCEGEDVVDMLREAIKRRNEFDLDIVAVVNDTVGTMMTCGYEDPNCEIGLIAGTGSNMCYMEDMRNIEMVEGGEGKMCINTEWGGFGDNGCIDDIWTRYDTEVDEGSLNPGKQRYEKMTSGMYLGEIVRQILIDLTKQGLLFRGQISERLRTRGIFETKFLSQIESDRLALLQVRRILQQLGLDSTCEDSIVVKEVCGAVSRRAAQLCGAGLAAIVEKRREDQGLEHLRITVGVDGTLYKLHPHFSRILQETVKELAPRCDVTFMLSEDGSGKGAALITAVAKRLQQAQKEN

[7] = mammalian cell cytotoxicity, dose response, cytotoxicity control, plate reader, cherry-pick samples (AID 504397); format: functional, cell-based
Protein RecA = molecular target: T5, Protein RecA (Mycobacterium tuberculosis, UniProt P9WHJ3); experiment: Fluorescence Cell-Free Homogeneous Dose Retest to Identify Inhibitors of RecA-Intein Splicing Activity. [Related pubchem assays (depositor defined):AID2097, AID2223, AID489010, AID492950]; format: functional
T5 sequence (P9WHJ3 whole entry): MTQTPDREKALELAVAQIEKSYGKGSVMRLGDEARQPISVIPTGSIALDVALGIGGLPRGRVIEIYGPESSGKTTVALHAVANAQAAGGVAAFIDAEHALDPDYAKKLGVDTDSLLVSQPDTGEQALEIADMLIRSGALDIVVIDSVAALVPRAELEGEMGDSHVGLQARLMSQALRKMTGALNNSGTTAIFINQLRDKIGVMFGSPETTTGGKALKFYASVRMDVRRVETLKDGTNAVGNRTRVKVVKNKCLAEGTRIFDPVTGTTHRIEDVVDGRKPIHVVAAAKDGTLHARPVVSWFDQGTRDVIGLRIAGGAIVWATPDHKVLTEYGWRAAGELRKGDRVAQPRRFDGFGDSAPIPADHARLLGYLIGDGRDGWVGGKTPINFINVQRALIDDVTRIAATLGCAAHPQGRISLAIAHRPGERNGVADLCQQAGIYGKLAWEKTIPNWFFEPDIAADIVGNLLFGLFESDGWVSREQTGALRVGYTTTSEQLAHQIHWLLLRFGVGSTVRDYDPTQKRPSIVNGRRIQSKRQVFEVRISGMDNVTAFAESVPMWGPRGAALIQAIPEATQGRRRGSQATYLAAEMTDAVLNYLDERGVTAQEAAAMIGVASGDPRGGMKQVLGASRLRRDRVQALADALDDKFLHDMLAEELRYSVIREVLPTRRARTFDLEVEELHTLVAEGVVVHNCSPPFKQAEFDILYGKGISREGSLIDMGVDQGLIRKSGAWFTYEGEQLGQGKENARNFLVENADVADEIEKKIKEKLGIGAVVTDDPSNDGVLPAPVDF

[8] = molecular target: Dual specificity tyrosine-phosphorylation-regulated kinase 1A (Rattus norvegicus, UniProt Q63470); format: biochemical, Homo sapiens
[9] = molecular target: Voltage-gated inwardly rectifying potassium channel KCNH2 (Homo sapiens, UniProt Q12809); settings: Potency;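 note: confirmatory quantitative high-throughput screen measuring inhibition of hERG channel activity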
Chain of Voltage-gated inwardly rectifying potassium channel KCNH2 (Q12809 whole entry): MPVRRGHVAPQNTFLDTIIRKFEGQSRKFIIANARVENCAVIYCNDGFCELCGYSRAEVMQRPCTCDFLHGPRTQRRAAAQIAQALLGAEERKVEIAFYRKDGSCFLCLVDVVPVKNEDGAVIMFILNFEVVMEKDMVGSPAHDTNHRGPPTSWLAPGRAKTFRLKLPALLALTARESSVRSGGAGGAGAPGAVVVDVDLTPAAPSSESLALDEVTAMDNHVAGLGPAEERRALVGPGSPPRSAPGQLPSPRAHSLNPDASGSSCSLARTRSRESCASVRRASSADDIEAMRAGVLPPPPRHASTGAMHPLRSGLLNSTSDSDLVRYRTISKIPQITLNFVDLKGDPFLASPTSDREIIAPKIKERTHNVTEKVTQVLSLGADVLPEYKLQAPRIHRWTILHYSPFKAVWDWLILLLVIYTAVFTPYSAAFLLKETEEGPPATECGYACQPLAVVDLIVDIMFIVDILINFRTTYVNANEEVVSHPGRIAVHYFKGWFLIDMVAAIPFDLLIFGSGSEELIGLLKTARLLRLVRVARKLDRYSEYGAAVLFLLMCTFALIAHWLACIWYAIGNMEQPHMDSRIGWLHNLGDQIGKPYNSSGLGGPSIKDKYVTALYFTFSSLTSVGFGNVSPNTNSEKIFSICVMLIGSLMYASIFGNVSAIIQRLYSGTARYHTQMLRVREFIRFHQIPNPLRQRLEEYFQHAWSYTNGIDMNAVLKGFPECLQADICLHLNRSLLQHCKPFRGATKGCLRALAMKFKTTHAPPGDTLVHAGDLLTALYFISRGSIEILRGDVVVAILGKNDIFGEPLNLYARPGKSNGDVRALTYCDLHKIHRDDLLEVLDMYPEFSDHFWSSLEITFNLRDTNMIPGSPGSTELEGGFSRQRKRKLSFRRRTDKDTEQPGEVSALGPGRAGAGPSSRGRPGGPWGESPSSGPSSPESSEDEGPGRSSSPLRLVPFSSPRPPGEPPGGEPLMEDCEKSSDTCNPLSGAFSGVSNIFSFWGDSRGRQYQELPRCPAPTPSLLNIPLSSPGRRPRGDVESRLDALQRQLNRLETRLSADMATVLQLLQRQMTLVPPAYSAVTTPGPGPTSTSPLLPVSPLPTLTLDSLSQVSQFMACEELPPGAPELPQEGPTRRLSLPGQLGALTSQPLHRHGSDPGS

[10] = molecular target: Heat shock protein HSP 90-alpha (Homo sapiens, UniProt P07900); experiment: Luminescence-based dose response biochemical high throughput screening assay for inhibitors of the Heat Shock Protein 90 (HSP90). [Related pubchem assays: 1831 (Summary AID.), 1846 (Confirmation screen.), 1789 (Primary screen.)]
[11] = molecular target: Beta-adrenergic receptor kinase 1 (Homo sapiens, UniProt P25098); experiment: aptamer displacement from bead-bound GRK2 – biochemical, cherry pick 1, bead flow cytometry, dose response (AID 504500)
Protein skinhead-1 = molecular target: T6, Protein skinhead-1 (Caenorhabditis elegans, UniProt P34707); format: functional
T6 sequence (P34707 whole entry): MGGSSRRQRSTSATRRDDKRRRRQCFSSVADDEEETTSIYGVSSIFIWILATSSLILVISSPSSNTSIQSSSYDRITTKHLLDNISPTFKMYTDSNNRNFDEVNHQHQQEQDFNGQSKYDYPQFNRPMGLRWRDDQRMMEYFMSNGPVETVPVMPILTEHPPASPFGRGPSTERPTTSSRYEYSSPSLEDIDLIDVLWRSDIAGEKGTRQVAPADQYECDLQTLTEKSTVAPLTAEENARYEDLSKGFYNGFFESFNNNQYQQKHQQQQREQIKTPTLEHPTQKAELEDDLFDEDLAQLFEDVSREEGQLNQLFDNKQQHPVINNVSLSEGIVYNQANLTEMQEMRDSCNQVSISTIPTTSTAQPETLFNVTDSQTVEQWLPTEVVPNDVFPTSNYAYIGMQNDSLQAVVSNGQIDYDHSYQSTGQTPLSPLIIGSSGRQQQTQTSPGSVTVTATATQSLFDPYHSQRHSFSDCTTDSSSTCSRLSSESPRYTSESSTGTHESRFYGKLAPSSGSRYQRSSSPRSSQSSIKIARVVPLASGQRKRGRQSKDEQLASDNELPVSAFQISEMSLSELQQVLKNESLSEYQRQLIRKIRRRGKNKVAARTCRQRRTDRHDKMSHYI

[12] = molecular target: T7, Beta-2 adrenergic receptor (Homo sapiens, UniProt P07550); experiment: beta2AR agonists driving receptor internalization, dose response, cell-based, FAP fluorogen, flow cytometry, cherry pick 1 (AID 588763); format: functional
T7 sequence (P07550 whole entry): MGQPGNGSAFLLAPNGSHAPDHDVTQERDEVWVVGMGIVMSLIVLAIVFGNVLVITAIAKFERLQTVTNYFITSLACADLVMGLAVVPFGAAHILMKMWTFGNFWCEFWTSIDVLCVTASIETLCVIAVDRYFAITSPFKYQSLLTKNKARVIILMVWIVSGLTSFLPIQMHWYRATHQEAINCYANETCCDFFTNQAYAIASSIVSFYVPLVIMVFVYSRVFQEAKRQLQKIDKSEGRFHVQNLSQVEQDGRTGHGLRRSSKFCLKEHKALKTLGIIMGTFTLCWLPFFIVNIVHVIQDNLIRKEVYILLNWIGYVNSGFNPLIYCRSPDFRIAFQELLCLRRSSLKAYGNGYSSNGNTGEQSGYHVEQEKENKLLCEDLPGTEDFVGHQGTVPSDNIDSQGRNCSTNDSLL

[13] = molecular target: T7, Beta-2 adrenergic receptor; experiment: Dose response for HTS for Beta-2AR agonists via FAP method from Powderset3.; format: functional
[14] = molecular target: Envelope glycoprotein gp160 (Human immunodeficiency virus 1, UniProt Q6QLK5); experiment: inhibitors of HIV fusion peptide binding, primary screen, biochemical, uHTS, fluorescence dequenching (AID 1986)
Chain of Envelope glycoprotein gp160 (Q6QLK5 whole entry, the tested form may be a part): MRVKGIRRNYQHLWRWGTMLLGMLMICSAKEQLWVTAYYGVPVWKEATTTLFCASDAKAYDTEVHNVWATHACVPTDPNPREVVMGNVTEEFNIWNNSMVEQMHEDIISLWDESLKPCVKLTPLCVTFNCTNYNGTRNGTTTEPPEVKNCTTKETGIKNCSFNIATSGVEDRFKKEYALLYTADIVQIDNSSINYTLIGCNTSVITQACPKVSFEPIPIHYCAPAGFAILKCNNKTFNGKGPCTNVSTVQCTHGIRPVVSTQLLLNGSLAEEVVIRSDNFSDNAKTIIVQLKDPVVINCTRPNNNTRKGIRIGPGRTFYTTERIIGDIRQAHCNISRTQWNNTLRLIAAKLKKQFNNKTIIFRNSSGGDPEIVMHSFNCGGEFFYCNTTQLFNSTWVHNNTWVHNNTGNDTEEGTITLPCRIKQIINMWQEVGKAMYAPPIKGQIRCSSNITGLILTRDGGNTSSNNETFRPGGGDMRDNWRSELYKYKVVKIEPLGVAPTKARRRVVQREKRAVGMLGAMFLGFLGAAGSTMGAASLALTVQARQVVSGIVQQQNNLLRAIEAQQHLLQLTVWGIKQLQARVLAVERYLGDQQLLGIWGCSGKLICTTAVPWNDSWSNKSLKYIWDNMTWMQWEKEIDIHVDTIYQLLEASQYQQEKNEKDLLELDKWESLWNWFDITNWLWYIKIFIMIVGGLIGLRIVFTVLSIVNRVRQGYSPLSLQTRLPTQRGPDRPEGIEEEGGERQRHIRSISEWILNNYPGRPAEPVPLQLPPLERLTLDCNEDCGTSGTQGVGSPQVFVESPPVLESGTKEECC

[15] = HIV-1 Env-mediated cell fusion inhibitors, dose response, CCR5-tropic Env (AID 2279); format: functional
Cysteine protease ATG4B = Cysteine protease ATG4B (Homo sapiens, UniProt Q9Y4P1); format: functional;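 note: Fluorescence-based dose-response confirmation assay measuring inhibition of ATG4B activity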
Chain of Cysteine protease ATG4B (Q9Y4P1 whole entry): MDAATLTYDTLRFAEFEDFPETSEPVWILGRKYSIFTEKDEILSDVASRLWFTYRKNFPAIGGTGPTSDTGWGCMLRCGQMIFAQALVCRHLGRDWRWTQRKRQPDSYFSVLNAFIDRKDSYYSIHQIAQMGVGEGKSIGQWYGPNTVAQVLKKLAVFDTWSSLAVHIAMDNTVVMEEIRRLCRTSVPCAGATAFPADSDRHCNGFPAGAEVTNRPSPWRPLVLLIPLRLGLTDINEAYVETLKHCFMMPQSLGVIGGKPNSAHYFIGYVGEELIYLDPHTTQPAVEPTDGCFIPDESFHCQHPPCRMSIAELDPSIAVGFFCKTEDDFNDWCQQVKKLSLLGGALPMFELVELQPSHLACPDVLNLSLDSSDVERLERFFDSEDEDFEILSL

Phospholipase A2 = Phospholipase A2 (Homo sapiens, UniProt P04054); format: functional;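 note: confirmatory dose-response counterscreen on phospholipase A2, testing hits that came from an ultra-high-throughput screen for ATG4B inhibitors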
Chain of Phospholipase A2 (P04054 whole entry, the tested form may be a part): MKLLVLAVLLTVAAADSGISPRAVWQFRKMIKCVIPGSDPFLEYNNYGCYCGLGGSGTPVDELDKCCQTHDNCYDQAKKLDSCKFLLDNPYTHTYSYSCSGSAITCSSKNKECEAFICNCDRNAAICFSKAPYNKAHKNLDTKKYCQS

[16] = molecular target: T8, Carboxy-terminal domain RNA polymerase II polypeptide A small phosphatase 1 (Homo sapiens, UniProt Q9GZU7); experiment: inhibitors of CTDSP1, concentration-response testing, biochemical assay, absorbance-based, actives from ultra-high-throughput screening (AID 540297); format: functional
T8 sequence (Q9GZU7 whole entry): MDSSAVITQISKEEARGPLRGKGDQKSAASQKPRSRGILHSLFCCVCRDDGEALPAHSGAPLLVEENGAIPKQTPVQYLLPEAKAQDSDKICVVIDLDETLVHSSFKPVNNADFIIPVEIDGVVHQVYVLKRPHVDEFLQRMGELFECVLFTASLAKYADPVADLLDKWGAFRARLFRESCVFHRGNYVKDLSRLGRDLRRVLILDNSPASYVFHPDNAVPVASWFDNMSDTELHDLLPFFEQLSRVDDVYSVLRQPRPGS

[17] = molecular target: Glycogen synthase kinase-3 alpha (Homo sapiens, UniProt P49840); experiment: Inhibition of Human GSK-3 alpha Activity Measured in Biochemical System Using Microfluidics - 2063-06_Inhibitor_Dose_DryPowder_Activity. [Related pubchem assays (depositor defined):AID2709]
Chain of Glycogen synthase kinase-3 alpha (P49840 whole entry): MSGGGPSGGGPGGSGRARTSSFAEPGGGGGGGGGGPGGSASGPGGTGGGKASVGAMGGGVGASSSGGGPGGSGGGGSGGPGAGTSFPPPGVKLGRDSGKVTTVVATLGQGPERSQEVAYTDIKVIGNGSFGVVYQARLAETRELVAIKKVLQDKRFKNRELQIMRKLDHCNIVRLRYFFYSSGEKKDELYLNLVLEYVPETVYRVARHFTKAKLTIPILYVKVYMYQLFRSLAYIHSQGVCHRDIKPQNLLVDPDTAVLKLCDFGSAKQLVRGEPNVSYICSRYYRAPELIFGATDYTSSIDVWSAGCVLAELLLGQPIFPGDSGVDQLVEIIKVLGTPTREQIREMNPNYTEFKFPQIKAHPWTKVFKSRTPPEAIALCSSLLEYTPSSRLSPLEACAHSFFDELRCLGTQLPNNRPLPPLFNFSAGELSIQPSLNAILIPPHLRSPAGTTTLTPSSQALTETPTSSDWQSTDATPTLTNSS

[18] = molecular target: Glycogen synthase kinase-3 beta (Homo sapiens, UniProt P49841); experiment: Inhibition of Human GSK-3 beta Activity Measured in Biochemical System Using Microfluidics - 2063-05_Inhibitor_Dose_DryPowder_Activity. [Related pubchem assays (depositor defined):AID2709]
Chain of Glycogen synthase kinase-3 beta (P49841 whole entry): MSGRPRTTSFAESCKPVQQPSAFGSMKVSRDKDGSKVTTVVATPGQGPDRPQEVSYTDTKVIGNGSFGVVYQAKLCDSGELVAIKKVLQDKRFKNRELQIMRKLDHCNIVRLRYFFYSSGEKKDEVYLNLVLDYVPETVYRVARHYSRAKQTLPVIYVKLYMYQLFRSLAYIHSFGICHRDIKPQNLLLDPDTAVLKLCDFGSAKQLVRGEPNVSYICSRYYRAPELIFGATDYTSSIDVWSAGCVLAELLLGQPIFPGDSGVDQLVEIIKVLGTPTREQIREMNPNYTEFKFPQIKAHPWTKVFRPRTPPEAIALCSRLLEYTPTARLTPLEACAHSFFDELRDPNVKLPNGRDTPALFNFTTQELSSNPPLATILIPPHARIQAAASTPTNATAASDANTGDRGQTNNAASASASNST

CN1c2ccc(C=O)c3c(C=O)ccc(c23)N(C)C1(C)C
EC50 [1]: 17.8 µM (active) | EC50 [2]: 74 µM (inconclusive) | EC50 [3]: 15.9 µM (active) | EC50 [4]: 5.37 µM (inconclusive) | EC50 [5]: > 120 µM (not active) | IC50 (Large T antigen): 23 µM (active) | AC50 (CAAX prenyl protease 2): 10.5 µM (active) | AC50 [6]: 1.54 µM (active) | IC50 (Hexokinase HKDC1): 13.1 µM (active) | AC50 [7]: 45.7 µM (active) | EC50 (Protein RecA): 59.9 µM (inconclusive) | AC50 [8]: 199 nM (active)

CC(=O)O[C@]1(C(C)=O)CC[C@H]2[C@@H]3C=C(Cl)C4=CC(=O)[C@@H]5C[C@H]5[C@]4(C)[C@H]3CC[C@@]21C
AC50 [9]: 35.5 µM (inconclusive)

Cc1cc2ccccc2n1CCNC(=O)c1cccs1
IC50 [10]: 4.57 µM (active) | EC50 [11]: 3.5 µM (active) | IC50 (Protein skinhead-1): > 100 µM (inactive)

Cc1ccc(NC(=O)C(c2ccc(Cl)cc2)N2CCOCC2)cc1 (stereo not given)
EC50 [12]: 2.18 µM (active) | EC50 [13]: 1.51 µM (active)

CCOc1cc(/C=C2\SC(=O)N(CC(=O)Nc3ccccc3F)C2=O)cc([N+](=O)[O-])c1O
IC50 [14]: 26.9 µM (active) | IC50 [15]: 43.6 µM (active) | IC50 (Cysteine protease ATG4B): 9.16 µM (active) | IC50 (Phospholipase A2): 7.23 µM (active) | IC50 [16]: 9.89 µM (active)

COC(=O)c1ccc(CSc2nnc(-c3ccncc3)o2)cc1
AC50 [17]: 1.67 µM (active) | AC50 [18]: 395 nM (active)
